This is an account of results in patent publication US12018307B2, “Process for producing a glucuronide and genetically modified microorganisms useful in this process” (UTAH STATE UNIVERSITY, priority 2021, dated 2024).

Broadly, the solubility is the dissolved amount per volume that the medium holds. High values mean much dissolved substance, low ones little dissolved substance.

Data set [1] can be described thus: Determination of the water-solubility. It counts as physicochemical. Here is the method:
The purified product was tested for their water solubility as previously described (Wang et al. 2014). Purified 2′-hydroxyflavone glycoside was used to establish standard curves for quantifying water solubility. Briefly, the purified compound and the substrate were each mixed with 300 μL of distilled water in an Eppendorf tube at 25° C. An ultrasonic cleaner was used to facilitate the dissolution. After 30 min of sonication and centrifugation at 13,000×g for 10 min, supernatant of each sample was analyzed by HPLC to determine the compound concentrations in the solution. All samples were performed in triplicate and water solubility of each sample are expressed as the mean±standard deviation (SD).

Data set [2] relates to human peripheral blood mononuclear cells. The settings on record: cited from earlier work.

≈ marks a conversion by molar mass, not a printed value. Like-named read-outs stand apart in the source and are kept apart here.

With `O=c1cc(-c2ccccc2O)oc2ccccc12` [2′-hydroxyflavone, reference compound], the solubility at 30 min in data set [1] (thermodynamic from solid, distilled water, 25° C., 30 min sonication, HPLC, n=3, mean±SD) came to 2.5 ± 0.7 µg/mL (≈ 10.5 µM).
For the compound `O=C(O)[C@H]1O[C@@H](Oc2ccccc2-c2cc(=O)c3ccccc3o2)[C@H](O)[C@@H](O)[C@@H]1O` [hydroxyflavone-2′-O-β-D-glucuronide], the water solubility in data set [1] (distilled water, 25° C., 30 min sonication, HPLC, n=3, mean±SD) came to 34.8 ± 0.9 µg/mL (≈ 84 µM). Also, in data set [1] (ratio glucuronide / substrate), the “water solubility relative to the substrate 2′-hydroxyflavone” value was “around 14 times”.
On to `Oc1ccc(C=Cc2cc(O)cc(O)c2)cc1` [resveratrol, reference compound], for which, in data set [2] (at 30 μM), the “cytotoxicity to human peripheral blood mononuclear cells” value is “has cytotoxicity”.
Turning to `O=C(O)[C@H]1O[C@@H](Oc2ccc(/C=C/c3cc(O)cc(O)c3)cc2)[C@H](O)[C@@H](O)[C@@H]1O` [resveratrol-4′-O-β-D-glucuronide, Resveratrol-4′-O-β-D-glucuronide], in data set [2] (at 300 μM), the “cytotoxicity to human peripheral blood mononuclear cells” value was “did not show any cytotoxicity”.
